Assay results reported in PubChem BioAssay (NCI).
“And” between values parts separate entries of the source, which are not always exact repeats. Equal entries are not always repeated.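 Dose response: 5 concentrations. Exposure: 48 h. Format: 96-well plates. Endpoint: linear interpolation; highest concentration if not reached. Abbreviation: GI50, concentration required for 50% inhibition of growth. At the TGI there is no net growth.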

Key:
Assay in all cases: DTP human tumour cell line panel, 48 h
A549 NSCLC = system: A549 NSCLC
HT29 colon = system: HT29 colon
M14 melanoma = system: M14 melanoma
MALME-3M melanoma = system: MALME-3M melanoma
OVCAR-4 ovarian = system: OVCAR-4 ovarian
OVCAR-5 ovarian = system: OVCAR-5 ovarian
OVCAR-8 ovarian = system: OVCAR-8 ovarian
SN12C renal = system: SN12C renal
T-47D breast = system: T-47D breast
HOP-92 NSCLC = system: HOP-92 NSCLC

SMILES | GI50 (A549 NSCLC) [µM] | TGI (A549 NSCLC) [µM] | GI50 (HT29 colon) [µM] | TGI (HT29 colon) [µM] | GI50 (M14 melanoma) | TGI (M14 melanoma) | GI50 (MALME-3M melanoma) [µM] | TGI (MALME-3M melanoma) | GI50 (OVCAR-4 ovarian) [µM] | TGI (OVCAR-4 ovarian) [µM] | GI50 (OVCAR-5 ovarian) [µM] | TGI (OVCAR-5 ovarian) [µM] | GI50 (OVCAR-8 ovarian) [µM] | TGI (OVCAR-8 ovarian) [µM] | GI50 (SN12C renal) [µM] | TGI (SN12C renal) [µM] | GI50 (T-47D breast) [µM] | TGI (T-47D breast) [µM] | GI50 (HOP-92 NSCLC) | TGI (HOP-92 NSCLC)
COc1cc(Nc2nc3cc(N)cc(N)c3nc2-c2ccccc2)cc(OC)c1 | 20.1 | > 100 | 27.3 | > 100 | 14.2 µM | 34.8 µM | 4.34 | 24.6 µM | 17.8 | > 100 | 26.6 | > 100 | 6.2 | 47 | 8.62 | > 100 | 4.44 | 23 | – | –
CC(C)NCCNC(=O)c1ccccc1Nc1c(Cl)cccc1Cl | – | 33.9 | – | 17.5 | – | 25.1 µM | – | – | – | 30.3 | – | 20.4 | – | 34.4 | – | 26.8 | – | – | – | –
CC1OC(n2ncc(=O)[nH]c2=O)C=CC1=O (stereo not drawn) | – | > 100 | – | > 100 | 89.4 µM and 20.5 µM | > 100 µM and 60.5 µM | – | 40.2 µM and 48.3 µM | – | > 100 | – | > 100 | – | > 100 | – | > 100 | – | – | 71.1 µM and 32.8 µM | > 100 µM and 71.9 µM
[Cl][Bi]([O]c1ccccn1)[O]c1ccccn1 | > 100 | > 100 | – | – | > 100 µM | > 100 µM | > 100 | > 100 µM | > 100 | > 100 | > 100 | > 100 | > 100 | > 100 | > 100 | > 100 | – | – | – | –
CC(O)/C=C/C(CCC(C)CO)C(C)C (stereo not drawn) | – | > 100 | – | > 100 | – | > 100 µM | – | > 100 µM | – | > 100 | – | > 100 | – | > 100 | – | > 100 | – | – | – | > 100 µM
Cc1ccc(NC(=O)CC2C(=O)Nc3ccccc3S2=O)cc1C (stereo not drawn) | – | > 100 | – | > 100 | – | > 100 µM | – | > 100 µM | – | 34.3 | – | > 100 | – | > 100 | – | > 100 | – | – | – | 74.2 µM
CC(=O)O[C@H]1C(=O)[C@@]2(C)C(C(OC(=O)c3ccccc3)[C@]3(O)CC(OC(=O)[C@H](OC(=O)CCC(=O)O)C(NC(=O)c4ccccc4)c4ccccc4)C(C)=C1C3(C)C)C1(OC(C)=O)COC1C[C@@H]2OC(=O)CCC(=O)O (stereo partly drawn) | – | > 100 | – | – | – | > 100 µM | – | > 100 µM | – | > 100 | – | – | – | > 100 | – | > 100 | – | > 100 | – | > 100 µM
N#CC(C(=O)/C(=N/N)C(C#N)c1ccc(Cl)cc1)c1ccc(Cl)cc1 (stereo not drawn) | – | > 100 | – | > 100 | – | > 100 µM | – | > 100 µM | – | > 100 | – | > 100 | – | > 100 | – | > 100 | – | – | – | > 100 µM
Cc1c(C#N)cccc1-c1cc(-c2cn(Cc3cccc(C(C)(C)O)n3)nn2)nc(N)n1 | 26.9 | > 100 | 28.2 | > 100 | 21.7 µM | > 100 µM | 31.3 | > 100 µM | 9.69 | > 100 | > 100 | > 100 | 24.2 | > 100 | 17.2 | > 100 | 6.9 | 62.5 | – | –
